Assay results taken from US9637451B2, “Indole compound” (ASTELLAS PHARMA INC., priority 2014, dated 2017).

What was measured:
Assay type in all cases: in vivo
[1] = Brain-to-plasma concentration ratio in rat after intravenous administration; conditions: brain and plasma, 15 minutes after intravenous administration
Procedure: At 15 minutes after intravenously administration of the test compound to the rats, the plasma and brain were collected. A 50% acetonitrile solution and an acetonitrile including internal standard material were added to the collected plasma. The collected brain was added to a 2-fold volume of PBS and homogenized. A 50% acetonitrile solution and an acetonitrile including internal standard material were added to the brain homogenate. The sample was centrifuged at 4° C. and 2150×g for 10 minutes, the supernatant was measured by LC-MS/MS, and the total concentration of the test compound in the brain (Cbrain) and the total concentration of the test compound in the plasma (Cplasma,t) were obtained. The brain-to-plasma concentrations ratio (Kp,brain) was calculated by the following equation.
(§1) The Kp,uu,CSF values and the Kp,brain values of ramelteon and some Example compounds of the present invention are shown in Table 4. Ex represents Example No. of the test compound. Unless otherwise specified, the Kp,uu,CSF was calculated using the fp values determined by an ultracentrifugation method. Further, N.T. represents Not Tested.

rat = experiment: Measurement test of electroencephalogram in rat (sleep-awake cycle); conditions: oral
From the text: After the completion of a quarantine period, the animals showing no abnormal health condition were subjected to an electroencephalogram electrode chronic implantation surgery with reference to brain atlas of Pellegrino (Plenum Press, New York (1979)), or the like. Under anesthesia with pentobarbital sodium, the rat was calibrated in a brain stereotaxic apparatus. In the frontal cortex, a monopolar silver ball electrode having a diameter of the tip of about 1 mm was placed on a hard film of the brain. Into the hippocampus, a laminated bipolar electrodes made of stainless steel was stuck. The reference electrode was screwed around the olfactory brain. Further, as for the electromyogram measurement, the lead wire was implanted in the both electrodes about 1 cm between the electrodes in the neck portion. The other end was exposed to the head portion subcutaneously. The electrodes and the lead wires were subjected to soldering with connector sockets and fixed to the skull with a dental resin or the like.
The rats were accommodated in a measurement cage under rat feeding and water supply on the morning of the day of administration, and accustomed to the measurement environment. After measuring the weight using an electronic scale balance, a lead wire and a connector socket were connected 30 minutes or more before the start of the electroencephalogram measurement, and the rat was accustomed in the measurement state under no anesthesia and no custody. The test compounds were intraperitoneally or orally administered to the rats and the electroencephalogram was measured continuously until 6 hours after the administration.
Ramelteon: solvent, 0.1 mg/kg, 1 mg/kg, and 10 mg/kg; intraperitoneal administration
Example 1: solvent, 3 mg/kg, 30 mg/kg, and 300 mg/kg; oral administration
Example 6: solvent, 10 mg/kg, 30 mg/kg, and 300 mg/kg; oral administration
The electrical signals of electroencephalogram and of electromyogram were applied to an electroencephalogram system and an electroencephalogram frequency analysis program of a personal computer was used to acquire the wave form of the electroencephalogram from the electroencephalograph system. In addition, the image signals of the electroencephalogram waveform were applied to an EEG video system and recorded on DVD-R using a DVD recorder. The behavior observation was carried out through a video camera at the same time as the electroencephalogram measurement and the images were also recorded on DVD-R using DVD recorder.
The presence or absence of abnormality in the electroencephalogram waveform in up to 6 hours from immediately after the administration, to each animal, respectively, was observed.
The analysis of a sleep-awake cycle was carried out using a sleep stage display-supporting program (MTS50061B, Japan Santec Corporation) based on the electroencephalogram waveforms acquired with an electroencephalogram frequency analysis program. Using the index of electroencephalogram, electromyogram, and behavior, the sleep steps were classified into an awake phase, a rest phase, a slow wave light sleep (S.W.L.S.) phase, a slow wave deep sleep (S.W.D.S.) phase, and a fast wave sleep (F.W.S., REM sleep) phase. Further, the rest phase, the slow wave light sleep phase, and the slow wave deep sleep phase were summed to determine a slow wave sleep (S.W.S., Non-REM sleep) phase. […] As the assessment criteria in the respective sleep steps, the criteria described in Japanese Pharmacological Journal 84, 25-89 (1984) were used.

[2] = CSF-to-plasma unbound concentration ratio in rat after intravenous administration; conditions: CSF and plasma (unbound), iv, 15 minutes after intravenous administration, fp by ultracentrifugation method
Procedure: A test compound (100 μg/mL, 50% acetonitrile solution) at 1% (v/v) with respect to the amount of the plasma was added to rat plasma, and dispensed to a sample for a supernatant and a sample for the plasma. The sample for a supernatant was ultracentrifuged at 436,000×g and 37° C. for 140 minutes, and the sample for the plasma was incubated at 37° C. for 140 minutes.
After 140 minutes, the sample for a supernatant after the ultracentrifugation and the sample for the plasma were taken, and mixed with the blank plasma or the blank supernatant, respectively. Acetonitrile including an internal standard material was added to each of the samples with the removal of protein, and after the centrifugation at 2150×g and 4° C. for 10 minutes the supernatant was injected into LC-MS/MS.
The unbound fraction in the plasma was calculated by the following equation.
To the plasma of a rat was added a test compound (0.2 mM, 50% acetonitrile solution) in an amount corresponding to 1% (v/v) of the plasma amount, and 200 μL of obtained plasma sample was filled into a plasma chamber of a RED device insert. A buffer chamber was filled with 350 μL of PBS, followed by performing equilibrium dialysis by stirring in a CO2 incubator at 37° C. for 16 hours. The sample after the completion of the equilibrium dialysis was recovered and the volume of the plasma sample was measured. To the plasma sample after the completion of the equilibrium dialysis were added PBS, a 20 mM ammonium formate buffer, and acetonitrile including an internal standard material. Similarly, to the PBS sample after the completion of the equilibrium dialysis was added a blank plasma, a 20 mM ammonium formate buffer, and acetonitrile including an internal standard material. This sample was left to stand at 4° C. for 30 minutes and then centrifuged 1500×g for 10 minutes, and the supernatant was measured by LC-MS/MS. The unbound fraction in the plasma was calculated by the following equation. fp=Cf/{(Cp−Cf)(V/V0)+Cf}
At 15 minutes after intravenously administration of the test compound to the rats, the plasma and CSF were collected. A 50% acetonitrile solution and an acetonitrile including internal standard material were added to the collected plasma or CSF. After centrifuging this sample at 4° C. and 2150×g for 10 minutes, the supernatant was measured by LC-MS/MS, and the total concentration of the test compound in the plasma (Cplasma,t) and the concentration of the test compound in CSF (CCSF) were obtained. The unbound concentration in the plasma (Cplasma,u) of the test compound and the CSF-to-plasma unbound concentration ratio (Kp,uu,CSF) of the test compound was calculated by the following equation.
as §1
(Ramelteon represents the values of Kp,uu,CSF after 10 minutes after the intravenous administration. Further, the Kp,uu,CSF of Examples 37 and 38 was calculated using the fp values determined by an equilibrium dialysis method. In addition, N.D. denotes the concentration of the test compound in CSF that is no higher than the detection limit.)

With `CC(=O)NCCc1c[nH]c2cc(F)c(OCCOc3ccn(C)n3)cc12` [Example 6, N-[2-(6-fluoro-5-{2-[(1-methyl-1H-pyrazol-3-yl)oxy]ethoxy}-1H-indol-3-yl)ethyl]acetamide] the Kp at 0.25 h [1] was 0.09, the “occupancy in the respective sleep steps of electroencephalogram” value (rat; 10 mg/kg and 30 mg/kg) was “no change in the occupancy in the respective sleep steps of electroencephalogram could be seen” and the sleep action (rat; 10 mg/kg and 30 mg/kg) was “there was no sleep action”. For the same compound, the electroencephalogram (rat; 300 mg/kg) was “a variation in the electroencephalogram was observed” and the Kp uu at 0.25 h [2] was 0.06.
